Measured values taken from paper PMC5218480 (PLoS ONE, 2017).

Tested on: MV-4-11 cells
Experiment: Gene expression microarray analysis (Affymetrix PrimeView) and GSEA
Format: cell-based, human
Design: RFU PODN (11730768_x_at) / Fold change /veh PODN (11730768_x_at) / RFU LINC00158 (11744669_a_at) / Fold change /veh LINC00158 (11744669_a_at) / RFU DUSP10 (11751237_a_at) / Fold change /veh DUSP10 (11751237_a_at) / RFU ID3 (11757404_x_at) / Fold change /veh ID3 (11757404_x_at) / RFU PLEKHG5 (11737974_s_at) / Fold change /veh PLEKHG5 (11737974_s_at) / RFU LRRC4B (11730491_at) / Fold change /veh LRRC4B (11730491_at) / RFU GIMAP4 (11747438_a_at) / Fold change /veh GIMAP4 (11747438_a_at) / RFU KRT8 (11758183_x_at) / Fold change /veh KRT8 (11758183_x_at) / RFU CNN1 (11734310_a_at) / Fold change /veh CNN1 (11734310_a_at) / RFU VPS37D (11726825_at) / Fold change /veh VPS37D (11726825_at) / RFU C10orf10 (11716522_x_at) / Fold change /veh C10orf10 (11716522_x_at) / RFU KIR2DL2 /// KIR2DL4 /// KIR2DL5A /// KIR2DL5B /// KIR2DS1 /// KIR2DS2 /// KIR2DS3 /// KIR2DS4 /// KIR3DL3 /// KIR3DL3 /// KIR3DS1 (11738374_at) / Fold change /veh KIR2DL2 /// KIR2DL4 /// KIR2DL5A /// KIR2DL5B /// KIR2DS1 /// KIR2DS2 /// KIR2DS3 /// KIR2DS4 /// KIR3DL3 /// KIR3DL3 /// KIR3DS1 (11738374_at) / RFU C1QL1 (11718748_at) / Fold change /veh C1QL1 (11718748_at) / RFU TMPRSS4 (11747572_a_at) / Fold change /veh TMPRSS4 (11747572_a_at) / RFU HAMP (11756126_x_at) / Fold change /veh HAMP (11756126_x_at) / RFU RNFT2 (11725882_a_at) / Fold change /veh RNFT2 (11725882_a_at) / RFU NR4A2 (11747474_a_at) / Fold change /veh NR4A2 (11747474_a_at) / RFU ABCC12 (11746883_a_at) / Fold change /veh ABCC12 (11746883_a_at) / RFU TMEM136 (11760407_x_at) / Fold change /veh TMEM136 (11760407_x_at) / RFU CLDN22 /// WWC2 (11732394_at) / Fold change /veh CLDN22 /// WWC2 (11732394_at) / RFU HLA-DPB1 (11760878_x_at) / Fold change /veh HLA-DPB1 (11760878_x_at) / RFU SPINT1 (11716480_a_at) / Fold change /veh SPINT1 (11716480_a_at) / RFU GAP43 (11754022_s_at) / Fold change /veh GAP43 (11754022_s_at) / RFU A4GNT (11735810_at) / Fold change /veh A4GNT (11735810_at) / RFU PRB3 (11715151_x_at) / Fold change /veh PRB3 (11715151_x_at) / RFU TUBB4B (11761932_at) / Fold change /veh TUBB4B (11761932_at) / RFU CAPN14 (11732068_a_at) / Fold change /veh CAPN14 (11732068_a_at) / RFU TMCC2 (11721928_a_at) / Fold change /veh TMCC2 (11721928_a_at) / RFU IRGQ (11745062_a_at) / Fold change /veh IRGQ (11745062_a_at) / RFU FAM174B (11720279_a_at) / Fold change /veh FAM174B (11720279_a_at) / RFU TMPRSS4 (11748680_a_at) / Fold change /veh TMPRSS4 (11748680_a_at) / RFU FAM212B (11763350_a_at) / Fold change /veh FAM212B (11763350_a_at) / RFU PLEKHG5 (11743358_a_at) / Fold change /veh PLEKHG5 (11743358_a_at) / RFU ZSCAN30 (11745921_a_at) / Fold change /veh ZSCAN30 (11745921_a_at) / RFU CMKLR1 (11741424_a_at) / Fold change /veh CMKLR1 (11741424_a_at) / RFU LOC101060620 /// MAPK8IP1 (11723275_at) / Fold change /veh LOC101060620 /// MAPK8IP1 (11723275_at) / RFU SPTSSB (11747773_x_at) / Fold change /veh SPTSSB (11747773_x_at) / RFU PRSS12 (11739890_at) / Fold change /veh PRSS12 (11739890_at) / RFU BIN1 (11741810_x_at) / Fold change /veh BIN1 (11741810_x_at) / RFU WNT11 (11732464_a_at) / Fold change /veh WNT11 (11732464_a_at) / RFU C10orf10 (11716521_a_at) / Fold change /veh C10orf10 (11716521_a_at) / RFU C5orf56 (11738089_at) / Fold change /veh C5orf56 (11738089_at) / RFU CYB561 (11721691_x_at) / Fold change /veh CYB561 (11721691_x_at) / RFU ANKRD19P (11752326_a_at) / Fold change /veh ANKRD19P (11752326_a_at) / RFU OR2T12 /// OR2T33 /// OR2T8 (11738714_s_at) / Fold change /veh OR2T12 /// OR2T33 /// OR2T8 (11738714_s_at) / RFU VCAN (11748164_a_at) / Fold change /veh VCAN (11748164_a_at) / RFU JSRP1 (11732532_at) / Fold change /veh JSRP1 (11732532_at) / RFU KRTAP10-11 (11738290_x_at) / Fold change /veh KRTAP10-11 (11738290_x_at) / RFU MYO3A (11730013_a_at) / Fold change /veh MYO3A (11730013_a_at) / RFU EBF3 (11725865_a_at) / Fold change /veh EBF3 (11725865_a_at) / RFU CAMK2N1 (11719241_x_at) / Fold change /veh CAMK2N1 (11719241_x_at) / RFU C5orf56 (11738088_a_at) / Fold change /veh C5orf56 (11738088_a_at) / RFU OLFML3 (11715873_a_at) / Fold change /veh OLFML3 (11715873_a_at) / RFU LOC100653217 /// NTM (11731650_a_at) / Fold change /veh LOC100653217 /// NTM (11731650_a_at) / RFU MAPK11 (11762145_a_at) / Fold change /veh MAPK11 (11762145_a_at) / RFU FIZ1 (11724087_x_at) / Fold change /veh FIZ1 (11724087_x_at) / RFU OASL (11726364_x_at) / Fold change /veh OASL (11726364_x_at) / RFU SOX15 (11748057_x_at) / Fold change /veh SOX15 (11748057_x_at) / RFU CD79A (11719716_a_at) / Fold change /veh CD79A (11719716_a_at) / RFU HIST1H1D (11736915_at) / Fold change /veh HIST1H1D (11736915_at) / RFU CASKIN2 (11723855_a_at) / Fold change /veh CASKIN2 (11723855_a_at) / RFU LOC730098 (11760151_x_at) / Fold change /veh LOC730098 (11760151_x_at) / RFU OR4N2 (11742367_at) / Fold change /veh OR4N2 (11742367_at) / RFU PRRT2 (11749266_a_at) / Fold change /veh PRRT2 (11749266_a_at) / RFU SNX32 (11753110_a_at) / Fold change /veh SNX32 (11753110_a_at) / RFU CDHR5 (11726645_a_at) / Fold change /veh CDHR5 (11726645_a_at) / RFU RCAN1 (11760418_a_at) / Fold change /veh RCAN1 (11760418_a_at) / RFU FAM167A (11723789_a_at) / Fold change /veh FAM167A (11723789_a_at) / RFU FAM26E (11764081_at) / Fold change /veh FAM26E (11764081_at) / RFU ISYNA1 (11749810_s_at) / Fold change /veh ISYNA1 (11749810_s_at) / RFU ACY1 (11761880_at) / Fold change /veh ACY1 (11761880_at) / RFU 11764098_at / Fold change /veh 11764098_at / RFU SAMD14 (11745864_x_at) / Fold change /veh SAMD14 (11745864_x_at) / RFU NPB (11741838_a_at) / Fold change /veh NPB (11741838_a_at) / RFU TMPRSS6 (11731388_a_at) / Fold change /veh TMPRSS6 (11731388_a_at) / RFU KRTAP10-2 (11738614_at) / Fold change /veh KRTAP10-2 (11738614_at) / RFU ARHGAP8 /// PRR5-ARHGAP8 (11727945_x_at) / Fold change /veh ARHGAP8 /// PRR5-ARHGAP8 (11727945_x_at) / RFU KRTAP5-7 /// NADSYN1 (11734609_at) / Fold change /veh KRTAP5-7 /// NADSYN1 (11734609_at) / RFU RASL12 (11751679_a_at) / Fold change /veh RASL12 (11751679_a_at) / RFU CDKN2B (11736163_a_at) / Fold change /veh CDKN2B (11736163_a_at) / RFU PRF1 (11729649_at) / Fold change /veh PRF1 (11729649_at) / RFU, ZNF638 /// ZNF638-IT1 / Fold change vs veh, ZNF638 /// ZNF638-IT1 / RFU, PANK3 / Fold change vs veh, PANK3 / RFU, SH3YL1 / Fold change vs veh, SH3YL1 / RFU, ZEB2 / Fold change vs veh, ZEB2 / RFU, NRIP1 / Fold change vs veh, NRIP1 / RFU, PTTG1IP / Fold change vs veh, PTTG1IP / RFU, CAPN2 / Fold change vs veh, CAPN2 / RFU, MED14 / Fold change vs veh, MED14 / RFU, SNORA58 / Fold change vs veh, SNORA58 / RFU, C1orf63 / Fold change vs veh, C1orf63 / RFU, LRRFIP1 / Fold change vs veh, LRRFIP1 / RFU, NDUFAF7 / Fold change vs veh, NDUFAF7 / RFU, SLC12A2 / Fold change vs veh, SLC12A2 / RFU, IBTK / Fold change vs veh, IBTK / RFU, ESF1 / Fold change vs veh, ESF1 / Fold change vs veh, TMEM50B / RFU, TAOK1 / Fold change vs veh, TAOK1 / RFU, ACBD3 / Fold change vs veh, ACBD3 / RFU, TMA16 / Fold change vs veh, TMA16 / RFU, RWDD3 / Fold change vs veh, RWDD3 / RFU, BCAT1 / Fold change vs veh, BCAT1 / RFU, EDEM3 / Fold change vs veh, EDEM3 / RFU, TMEM33 / Fold change vs veh, TMEM33 / RFU, WDR75 / Fold change vs veh, WDR75 / RFU, AHCTF1 / Fold change vs veh, AHCTF1 / RFU, TFRC / Fold change vs veh, TFRC / RFU, ZDHHC17 / Fold change vs veh, ZDHHC17 / RFU, NOM1 / Fold change vs veh, NOM1 / RFU, ARL8B / Fold change vs veh, ARL8B / RFU, ZBTB11 / Fold change vs veh, ZBTB11 / RFU, TAMM41 / Fold change vs veh, TAMM41 / RFU, KIAA1704 /// LOC100996395 / Fold change vs veh, KIAA1704 /// LOC100996395 / RFU, ING1 / Fold change vs veh, ING1 / RFU, TRMT61B / Fold change vs veh, TRMT61B / RFU, FUBP3 / Fold change vs veh, FUBP3 / RFU, TP53 / Fold change vs veh, TP53 / RFU, TNKS2 / Fold change vs veh, TNKS2 / RFU, ZFP14 / Fold change vs veh, ZFP14 / RFU, ACTR2 / Fold change vs veh, ACTR2 / RFU, PPP3R1 / Fold change vs veh, PPP3R1 / RFU, PIK3R1 / Fold change vs veh, PIK3R1 / RFU, HNRNPA1 / Fold change vs veh, HNRNPA1 / RFU, RNF170 / Fold change vs veh, RNF170 / RFU, ZNF28 / Fold change vs veh, ZNF28 / RFU, RNGTT / Fold change vs veh, RNGTT / RFU, OGT / Fold change vs veh, OGT / RFU, BRD1 / Fold change vs veh, BRD1 / RFU, MARS / Fold change vs veh, MARS / RFU, ZNF655 / Fold change vs veh, ZNF655 / RFU, FAHD1 / Fold change vs veh, FAHD1 / RFU, BDP1 / Fold change vs veh, BDP1 / RFU, LRRCC1 / Fold change vs veh, LRRCC1 / RFU, ARID1A / Fold change vs veh, ARID1A / RFU, ZNF146 / Fold change vs veh, ZNF146 / RFU, ZNF330 / Fold change vs veh, ZNF330 / RFU, GPN3 / Fold change vs veh, GPN3 / RFU, C9orf123 / Fold change vs veh, C9orf123 / RFU, N4BP2L2 / Fold change vs veh, N4BP2L2 / RFU, ARFIP1 / Fold change vs veh, ARFIP1 / RFU, FAM179B / Fold change vs veh, FAM179B / RFU, BCL10 / Fold change vs veh, BCL10 / RFU, UHRF1BP1L / Fold change vs veh, UHRF1BP1L / RFU, BET1 / Fold change vs veh, BET1 / RFU, CNOT2 / Fold change vs veh, CNOT2 / RFU, ZNF268 / Fold change vs veh, ZNF268 / Fold change vs veh, ZNF507 / RFU, DGCR2 / Fold change vs veh, DGCR2 / RFU, WDSUB1 / Fold change vs veh, WDSUB1 / Fold change vs veh, HSP90B1 /// MIR3652 / RFU, ADSS / Fold change vs veh, ADSS / RFU, GK / Fold change vs veh, GK / RFU, ZNF148 / Fold change vs veh, ZNF148 / RFU, TAF9 / Fold change vs veh, TAF9 / RFU, SLC1A5 / Fold change vs veh, SLC1A5 / RFU, SLMO2 / Fold change vs veh, SLMO2 / RFU, ABCC4 / Fold change vs veh, ABCC4 / RFU, LOC101060439 /// RAP1B / Fold change vs veh, LOC101060439 /// RAP1B / RFU, RFX7 / Fold change vs veh, RFX7 / RFU, GTPBP10 / Fold change vs veh, GTPBP10 / RFU, CNEP1R1 / Fold change vs veh, CNEP1R1 / RFU, BIVM-ERCC5 /// ERCC5 / Fold change vs veh, BIVM-ERCC5 /// ERCC5 / RFU, ILF3 / Fold change vs veh, ILF3 / RFU 11762660_at / Fold change /veh 11762660_at / RFU VCAN (11757783_s_at) / Fold change /veh VCAN (11757783_s_at) / RFU DDX43 (11728927_at) / Fold change /veh DDX43 (11728927_at) / RFU KRT8 (11758188_x_at) / Fold change /veh KRT8 (11758188_x_at) / RFU NKD1 (11759106_at) / Fold change /veh NKD1 (11759106_at) / RFU SRD5A1 (11742802_a_at) / Fold change /veh SRD5A1 (11742802_a_at) / RFU TPSAB1 /// TPSB2 (11721975_s_at) / Fold change /veh TPSAB1 /// TPSB2 (11721975_s_at) / RFU GSTM3 (11746129_a_at) / Fold change /veh GSTM3 (11746129_a_at) / RFU IL23R (11737362_x_at) / Fold change /veh IL23R (11737362_x_at) / RFU TMEM51 (11727254_a_at) / Fold change /veh TMEM51 (11727254_a_at) / RFU PIWIL2 (11732686_x_at) / Fold change /veh PIWIL2 (11732686_x_at) / RFU ORM1 (11744905_x_at) / Fold change /veh ORM1 (11744905_x_at) / RFU CCDC152 (11743942_at) / Fold change /veh CCDC152 (11743942_at) / RFU ECM1 (11717891_a_at) / Fold change /veh ECM1 (11717891_a_at) / RFU IL23R (11748794_a_at) / Fold change /veh IL23R (11748794_a_at) / RFU TNFAIP8L3 (11732012_x_at) / Fold change /veh TNFAIP8L3 (11732012_x_at) / RFU MBOAT4 (11741988_at) / Fold change /veh MBOAT4 (11741988_at) / RFU 11764193_at / Fold change /veh 11764193_at / RFU TMEM53 (11763286_at) / Fold change /veh TMEM53 (11763286_at) / RFU MAGEB2 (11727129_at) / Fold change /veh MAGEB2 (11727129_at) / RFU TMEM200A (11744735_a_at) / Fold change /veh TMEM200A (11744735_a_at) / RFU CCDC152 (11751479_a_at) / Fold change /veh CCDC152 (11751479_a_at) / RFU FAM211A (11726209_a_at) / Fold change /veh FAM211A (11726209_a_at) / RFU RGS16 (11746705_a_at) / Fold change /veh RGS16 (11746705_a_at) / RFU VCAN (11755009_s_at) / Fold change /veh VCAN (11755009_s_at) / RFU RHOB (11743442_s_at) / Fold change /veh RHOB (11743442_s_at) / RFU RGS16 (11720943_a_at) / Fold change /veh RGS16 (11720943_a_at) / RFU RGS16 (11720944_at) / Fold change /veh RGS16 (11720944_at) / RFU, VPS4B / Fold change vs veh, VPS4B / RFU, CREB1 / Fold change vs veh, CREB1 / RFU, DNAJC13 / Fold change vs veh, DNAJC13 / RFU, GNAQ / Fold change vs veh, GNAQ / RFU, CDK5R1 / Fold change vs veh, CDK5R1 / RFU, ZRANB3 / Fold change vs veh, ZRANB3 / RFU, CUL4A / Fold change vs veh, CUL4A / RFU, CCNY / Fold change vs veh, CCNY / RFU, UFL1 / Fold change vs veh, UFL1 / RFU, COG3 / Fold change vs veh, COG3 / RFU, DIAPH2 / Fold change vs veh, DIAPH2 / RFU, SKA2 / Fold change vs veh, SKA2 / RFU, AFF3 / Fold change vs veh, AFF3 / RFU, LMF1 / Fold change vs veh, LMF1 / RFU, IPO11 / Fold change vs veh, IPO11 / RFU, DFFB / Fold change vs veh, DFFB / RFU, FOXP1 / Fold change vs veh, FOXP1 / RFU, CARD8 / Fold change vs veh, CARD8 / RFU, STRN3 / Fold change vs veh, STRN3 / RFU, ADK / Fold change vs veh, ADK / RFU, RASSF2 / Fold change vs veh, RASSF2 / RFU, WIPF1 / Fold change vs veh, WIPF1 / RFU, LARP1B / Fold change vs veh, LARP1B / RFU, RASA1 / Fold change vs veh, RASA1 / RFU, RB1 / Fold change vs veh, RB1 / RFU, PPFIA1 / Fold change vs veh, PPFIA1 / RFU, MAT2A / Fold change vs veh, MAT2A / RFU, CCT5 / Fold change vs veh, CCT5 / RFU, WDR92 / Fold change vs veh, WDR92 / RFU, CUX1 / Fold change vs veh, CUX1 / RFU, TTC7A / Fold change vs veh, TTC7A / RFU, TMEM135 / Fold change vs veh, TMEM135 / RFU, DEPTOR / Fold change vs veh, DEPTOR / RFU, CPM / Fold change vs veh, CPM / RFU, DNAJB6 / Fold change vs veh, DNAJB6 / RFU, CACNA2D3 / Fold change vs veh, CACNA2D3 / RFU, DTX4 / Fold change vs veh, DTX4 / RFU, TFCP2 / Fold change vs veh, TFCP2 / RFU, GMCL1 /// GMCL1P1 / Fold change vs veh, GMCL1 /// GMCL1P1 / RFU, AEBP2 / Fold change vs veh, AEBP2 / RFU, SNHG1 /// SNORD22 /// SNORD25 /// SNORD26 /// SNORD27 /// SNORD28 /// SNORD29 /// SNORD31 / Fold change vs veh, SNHG1 /// SNORD22 /// SNORD25 /// SNORD26 /// SNORD27 /// SNORD28 /// SNORD29 /// SNORD31 / Fold change (Aza/veh), C12orf56 (ProbeSet 11735607_a_at) / Fold change (ACY-1035/veh), C12orf56 (ProbeSet 11735607_a_at) / Fold change (Aza/veh), FGFR1OP (ProbeSet 11751329_s_at) / Fold change (ACY-1035/veh), FGFR1OP (ProbeSet 11751329_s_at) / Fold change (Aza/veh), VPS36 (ProbeSet 11739960_a_at) / Fold change (ACY-1035/veh), VPS36 (ProbeSet 11739960_a_at) / RFU SYPL1 (11715823_x_at) / Fold change /veh SYPL1 (11715823_x_at) / RFU IGFBP7 (11715501_s_at) / Fold change /veh IGFBP7 (11715501_s_at) / RFU REEP3 (11722064_at) / Fold change /veh REEP3 (11722064_at) / RFU IGLL1 (11728026_x_at) / Fold change /veh IGLL1 (11728026_x_at): dose or concentration left out as unconfirmed
Conditions: ProbeSet 11721559_s_at; LIST B

`Nc1ncn([C@@H]2O[C@H](CO)[C@@H](O)[C@H]2O)c(=O)n1` [azacitidine] was tested, and the “RFU, ZNF638 /// ZNF638-IT1” value was 347.20 RFU.
